In assay [1] the test system is HMC3 microglial cell line. Nature of the assay: RT-PCR of cytokines and chemokines in microglial cells. The class given is cell-based, human. Particulars: for key chemokines, including CCL2, CXCL9 and CXCL10, and cytokine IL1beta: monocyte and microglial cell activation. The source says: FIGS. 19A-E. Kynurenine metabolites contribute to CRS. (FIG. 19A-B) RT-PCR analysis of cytokines and chemokines that lead to myeloid cell activation in response to kynurenine metabolites exposure. ([…]) Western blot analysis of HMC3 microglial cell line in response to kynurenine metabolites exposure. (FIGS. 19D-E.) RT-PCR analysis of cytokines and chemokines in response to exposure to cytokines shown (TNF, Il1β, IFNγ).
CCL2 (MCP1) and CXCL10 (IP10) serve as chemo-attractants for myeloid and T cells, while CXCL9 (MIG) is a potent T cell chemoattractant. […] We confirmed Il1β protein production in response to Il1β stimulation (FIG. 19C). Il1β production was dependent on Ahr activity, as addition of an Ahr antagonist blocked up-regulation of Il1β. Il1β is a strong inducer of microglial activation.

Assay [2] concerns NMDA receptors. Nature of the assay: Western blot of HCN2 neurons for NMDA receptor activation (p-CREB, p-Erk). It is filed as cell-based. Particulars: 30 min, cytokines applied via culture filtrates of stimulated HMC3 microglia. The source says:
FIGS. 18A-B. Western blot analysis of HCN2 neurons showing NMDA receptor activation through increase in p-CREB levels in response to exposure to conditioned media. The conditioned media was produced by microglia and monocytes treated with cytokines to stimulate quinolinic acid (QUIN) production (FIG. 18A). This effect can be blocked with the use of IDO and AhR inhibitors (FIG. 18B) that block either kynurenine metabolite production or signaling.
QUIN binds directly to NMDA receptors, and leads to Ca^2+ influx, followed by activation cascade through Erk kinase phosphorylation and eventual phosphorylation of CREB transcription factor. In order to test if microglial cell derived QUIN is sufficient to activate NMDA receptors, we performed a co-culture experiment. Culture filtrates from an HMC3 microglial cell line were stimulated with IFNγ, Il1β, or combination of both, and were layered over HCN2 cortical neurons for 30 min, after which the cells were lysed and tested for downstream effectors of NMDA receptor activation.
Background: A western blot detects proteins with antibodies after separation by electrophoresis.

The conditions of assay [3]: early intervention strategy; cited from earlier work.
Assay [4] has as its system adult patients with CD19+B-ALL. Nature of the assay: Management of neurotoxicity and CRS (tocilizumab, corticosteroid, seizure prophylaxis) in the 19-28z CAR T cell trial. It is filed as in vivo, human. The text has this: The anti-IL-6 receptor monoclonal antibody, tocilizumab, with or without corticosteroid is often used to mitigate CRS and neurotoxicity. Six (18%) of 33 patients with neurotoxicity received tocilizumab alone; 14 (42%) received tocilizumab plus corticosteroid; 4 (12%) received corticosteroid alone; and 9 (27%) received neither tocilizumab nor corticosteroid (FIG. 6/Supplementary Fig. S1). In the 16 patients with severe neurotoxicity who received tocilizumab, 9 (56.3%) had peak neurotoxicity after the first dose of tocilizumab whereas 7 (43.7%) had peak neurotoxicity prior to or on the day of tocilizumab administration. […] The time from first tocilizumab and/or steroid dose to resolution of neurotoxicity (median, 9 days; range 4-21 days) was longer than the time to resolution of CRS (median, 1 day; range 0-3 days; P<0.001), confirming previous findings that neurotoxicity is less responsive than CRS to these treatment interventions.
Toxicity assessment: CRS was graded according to the MSKCC CRS grading system. Severe CRS was defined as ≥grade 3. Neurotoxicity was prospectively graded according to National Cancer Institute common terminology criteria for adverse events (CTCAE) v4.03 by the principal investigator (P). An independent retrospective review of the electronic medical record was performed by a neurologist (BS) who assigned daily neurotoxicity grades to the AE terms according to CTCAE v4.03. Discrepancies were adjudicated by consensus review. All patients developing neurologic symptoms were evaluated by the neurology consult service and followed with daily neurologic assessments until neurologic symptom resolution. Severe neurotoxicity was defined as ≥grade 3 toxicity with the exception that any seizure (including grade 1 or 2 by CTCAE criteria) was included as severe neurotoxicity.

Regarding `O=C(O)c1cc(=O)c2ccccc2[nH]1` [KA, kynurenic acid], the “key chemokines, including CCL2, CXCL9 and CXCL10, and cytokine IL1beta” value in assay [1] is given as “up-regulation”.
On to `Nc1ccccc1C(=O)CC(N)C(=O)O` (stereo not shown) [kynurenine], for which the “production of chemokines and cytokines on co-incubation” value in assay [1] (microglial cells, RT-PCR) was “induced production of several chemokines (CCL2, CXCL9, CXCL10) and cytokines, most notably Il1β”. Also, in assay [1], the “key chemokines, including CCL2, CXCL9 and CXCL10, and cytokine IL1beta” value is “up-regulation”.
For `O=C(O)c1cccnc1C(=O)O` [quinolinic acid], the “p-CREB and p-Erk in cortical neurons” value in assay [2] was “p-CREB and p-Erk upregulation”.
Regarding Il1beta: cytokine, in assay [2], the “p-CREB and p-Erk in cortical neurons” value was “p-CREB and p-Erk upregulation”. Moreover, the “monocyte attracting factors in response to Il1b” value in assay [1] (RT-PCR) is “strong upregulation of monocyte attracting factors, CCL2, CXCL9 and CXCL19”.
As for tocilizumab, in assay [3], the “frequency of severe neurotoxicity” value is “did not affect the frequency of severe neurotoxicity” and the “rate of severe CRS” value is “decreased the rate of severe CRS”. Also, in assay [4] (7 of 16 patients with severe neurotoxicity who received tocilizumab), the “patients with peak neurotoxicity prior to or on the day of tocilizumab administration” value came out at 43.7%. Besides, the “patients with peak neurotoxicity after the first dose of tocilizumab” value in assay [4] (9 of 16 patients with severe neurotoxicity who received tocilizumab) was 56.3%. Further, the “response of neurotoxicity to tocilizumab administration” value in assay [4] (in most patients) was “did not respond”. Moreover, in assay [4] (range 0-3 days), the “time from first tocilizumab and/or steroid dose to resolution of CRS (median)” value came out at 1 days. In addition, in assay [4] (range 4-21 days), the “time from first tocilizumab and/or steroid dose to resolution of neurotoxicity (median)” value turned out to be 9 days. Further, in assay [4] (serum), the “serum IL6 after tocilizumab administration” value is listed as “transient increase of serum IL6”. In assay [4] (tocilizumab therapy alone), the “effect on CRS” value is “readily improved CRS” and the “effect on neurologic symptoms” value was “did not ameliorate neurologic symptoms”.

Source of the values: US20210181179A1, “DIAGNOSIS AND TREATMENT OF IMMUNOTHERAPY-INDUCED NEUROTOXICITY” (MEMORIAL SLOAN KETTERING CANCER CENTER, priority 2018, published 2021).
